The values below come from US20110027192A1, “SLIM-FIT FAT BURNING WATER” (priority 2008, published 2011).

One data set deals with adults. Conditions: 1200 mg for a 60 kg person, 1993 GRAS expert committee; cited from earlier work.
In another data set the test system is cells (mitochondria). Conditions: cited from earlier work.
In data set [1] the test system is long chain fatty acid oxidation. Conditions: oral supplementation, healthy subjects; cited from earlier work.
Data set [2] in a line: Solubility of L-carnitine in water (100-2000 mg per 16 oz). It is filed as physicochemical. Conditions: about 100 mg to about 2000 mg per 16 fluid ounces of water.
Protocol: A pre-measured amount of L-carnitine was added into water at a final concentration range from about 100 mg to about 2000 mg per 16 fluid ounces (oz) of water.
The subject of data set [3] is long chain fatty acid oxidation. Conditions: oral supplementation, slightly overweight adults; cited from earlier work.

For `C[N+](C)(C)C[C@H](O)CC(=O)[O-].O=C([O-])CC(O)(CC(=O)[O-])C(=O)[O-].O=C([O-])CC(O)(CC(=O)[O-])C(=O)[O-].[Mg+2].[Mg+2].[Mg+2]` [L-Carnitine Magnesium Citrate], in the data set on adults, the “amount that can be safely ingested by adults” value is 20 mg/kg/day.
With `C[N+](C)(C)C[C@H](O)CC(=O)[O-]` [L-carnitine], the “rate at which cells (mitochondria) burned fat” value with cells (mitochondria) was “increased the rate”. The “long chain fatty acid oxidation as measured by 13CO2 exhalation” value in data set [1] is reported as “improved long chain fatty acid oxidation”. Further, the “amount that can be safely ingested by adults” value in the data set with adults is 20 mg/kg/day. Besides, the “solubility in the water” value in data set [2] is “completely soluble”.
Turning to `C[N+](C)(C)C[C@H](O)CC(=O)[O-].O=C(O)C(O)C(O)C(=O)O` [L-Carnitine L-Tartrate], the “long chain fatty acid oxidation” value in data set [3] is “increased long chain fatty acid oxidation”. The “amount that can be safely ingested by adults” value in the data set with adults is 20 mg/kg/day.
